Legend:
[1] = tested on: EMT6 tumor-implanted BALB/c mice; assay: pharmacokinetic-pharmacodynamic experiments in EMT6 tumor-bearing BALB/c mice; format: in vivo
[2] = mouse pharmacokinetic study, oral bioavailability; format: in vivo, C57BL/6 mice
[3] = in vitro stability in mouse hepatocytes; format: in vitro ADME

O=C(O)[C@H]1NCC[C@H]1CCCB(O)O [Compound 4a]
serum and tumor arginine levels ([1]; 30, 100, 300 mpk BID p.o., 1 h after fourth dose, vs saline control): substantially elevated
pharmacodynamic effects on serum and tumor arginine levels with or without codosing of mDX400 ([1]; p.o. 250 mpk BID, 14 day, ± mDX400 i.p. 5 mpk Q5D): comparable pharmacodynamic effects
tolerability / body weight ([1]; p.o. 250 mpk BID, alone and with mDX400 (i.p. 5 mpk Q5D), 14 day repeated dosing): well tolerated

C[C@H](N)C(=O)N[C@H]1CN[C@H](C(=O)O)[C@@H]1CCCB(O)O [Compound 23]
combined exposures of 18 and 23 (% F) ([2]; 23 dosed orally, 10 mpk, mouse): 27 % F
clearance ([2]; mouse pharmacokinetic experiments): rapid clearance

CC(C)[C@H](N)C(=O)N[C@H]1CN[C@H](C(=O)O)[C@@H]1CCCB(O)O [Compound 24a]
metabolic stability [3]: good metabolic stability was not achieved

From PMC8436246 (ACS Medicinal Chemistry Letters, 2021)
